Source: publication PMC11257079 (Environmental science and pollution research international, 2024)
≈ marks a conversion by molar mass, not a printed value. Like-named read-outs stand apart in the source and are kept apart here.

Key:
Hydra vulgaris = Hydra vulgaris assay; assay type: in vivo; conditions: 92 h, read-out: Morphology EC50
Caenorhabditis elegans = assay: whole plant or invertebrate; assay type: in vivo; conditions: for EC50: Caenorhabditis elegans, 48 h
Lemna minor = assay: whole plant or invertebrate; assay type: in vivo; conditions: for EC50 / inhibition at 1.3 µM: Lemna minor, 168 h
[1] = ref PubChem, NIH; cited from earlier work
[2] = at neutral pH and 20–25°C; ref PubChem, NIH; cited from earlier work
[3] = 48 hour, 95% confidence interval in brackets
[4] = 168 hour (7 day), 95% confidence interval in brackets
[5] = read-out: Chlorophyll Content EC50
[6] = 168 hour (7 day), 95% confidence interval in brackets, listed as pentachlorophenol

| Structure (SMILES) | EC50 (Hydra vulgaris) [µM] | Body Length EC10 (Caenorhabditis elegans; [3]) | Nose Touch EC10 (Caenorhabditis elegans; [3]) | Survival EC10 (Caenorhabditis elegans; [3]) | EC50 (Caenorhabditis elegans; read-out: Body Length EC50) [µM] | EC50 (Caenorhabditis elegans; read-out: Nose Touch EC50) [µM] | EC50 (Caenorhabditis elegans; read-out: Survival EC50) [µM] | Chlorophyll Content EC10 (Lemna minor; [4]) | Frond Number EC10 (Lemna minor; [4]) | Surface Area EC10 (Lemna minor; [4]) | EC50 (Lemna minor; [5]) [µM] | EC50 (Lemna minor; read-out: Frond Number EC50) [µM] | EC50 (Lemna minor; read-out: Surface Area EC50) [µM] | LogP [1] | Solubility in water [2] [mg/mL] | further results |
| --- | --- | --- | --- | --- | --- | --- | --- | --- | --- | --- | --- | --- | --- | --- | --- | --- |
| CON(C)C(=O)Nc1ccc(Cl)c(Cl)c1 [Linuron] | 63 | 0.036 (0.0030–0.070) mM | 0.056 (0.029–0.083) mM | 0.29 (0–1.3) mM | 220 | 150 | 650 | 0.00010 (0.000069–0.00013) mM | 0.00015 (0.00013–0.00016) mM | 0.00014 (0.00013–0.00016) mM | 0.15 | 0.18 | 0.18 | – | – | Chlorophyll Content EC10 (Lemna minor; 168 hour (7 day), 95% confidence interval in brackets, listed as linuron): 0.00010 mM |
| Oc1c(Cl)cc(Cl)cc1Cl [2,4,6-trichlorophenol] | – | – | – | – | 180 | 250 | 230 | – | – | – | 4 | 3.6 | 3.5 | – | – | Body Length EC10 (Caenorhabditis elegans; in vivo): 0.12 (0.094–0.14) mM; Decrease in nematode survival (Caenorhabditis elegans; in vivo): 2.6 ± 4%; Impairment to behavior (nose touch response) (Caenorhabditis elegans; in vivo): 16 ± 3%; Impairment to body length (Caenorhabditis elegans; in vivo): 5.9 ± 4%; Nose Touch EC10 (Caenorhabditis elegans; in vivo): 0.12 (0.11–0.15) mM; Survival EC10 (Caenorhabditis elegans; in vivo): 0.19 (0.15–0.23) mM; inhibition at 1.3 µM (Lemna minor; read-out: Inhibition of frond number): -3 ± 7%; inhibition at 1.3 µM (Lemna minor; read-out: Inhibition of surface area): 5.8 ± 0.9%; Chlorophyll Content EC10 (Lemna minor; in vivo): 0.0011 (0.0003–0.0018) mM; Decrease in chlorophyll content (Lemna minor; in vivo): 15 ± 3%; Frond Number EC10 (Lemna minor; in vivo): 0.0019 (0.0015–0.0023) mM; Surface Area EC10 (Lemna minor; in vivo): 0.0016 (0.0011–0.0021) mM |
| CCCN(CCC)c1c([N+](=O)[O-])cc(C(F)(F)F)cc1[N+](=O)[O-] [Trifluralin] | 10 | 0.19 (0–1.2) mM | 0.19 (0–0.59) mM | 0.13 (0.13–0.14) mM | 180 | 220 | 140 | 0.000042 (0–0.00015) mM | 0.00037 (0–0.00075) mM | 0.00062 (0–0.0014) mM | 4.6 | 1.8 | 1.4 | – | – | Nose Touch EC10 (Caenorhabditis elegans; 48 hour, 95% confidence interval in brackets, listed as trifluralin): 0.19 mM; Chlorophyll Content EC10 (Lemna minor; 168 hour (7 day), 95% confidence interval in brackets, listed as trifluralin): 0.000042 mM |
| Oc1c(Cl)c(Cl)c(Cl)c(Cl)c1Cl [Pentachlorophenol] | 1.9 | 0.21 (0–0.98) mM | 0.17 NA mM | 0.11 (0.099–0.13) mM | 180 | 190 | 170 | 0.00073 (0.00027–0.0012) mM | 0.0053 (0.0037–0.0070) mM | 0.0086 (0–0.031) mM | 2.3 | 8.4 | 88 | – | – | Body Length EC10 (Caenorhabditis elegans; 48 hour, 95% confidence interval in brackets, listed as pentachlorophenol): 0.21 mM; Chlorophyll Content EC10 (Lemna minor; [6]): 0.00073 mM; Frond Number EC10 (Lemna minor; [6]): 0.0053 mM; Surface Area EC10 (Lemna minor; [6]): 0.0086 mM |
| CCOP(=S)(OCC)Oc1cc(C)nc(C(C)C)n1 [Diazinon] | 55 | 0.016 (0.0083–0.024) mM | 0.080 (0.068–0.093) mM | 0.057 (0.052–0.061) mM | 77 | 120 | 71 | 0.016 (0–0.071) mM | 0.030 (0–0.140) mM | 0.031 (0–0.12) mM | 260 | 330 | 570 | – | – | Chlorophyll Content EC10 (Lemna minor; 168 hour (7 day), 95% confidence interval in brackets, listed as diazinon): 0.0016 mM |
| C[n+]1ccc(-c2cc[n+](C)cc2)cc1 [Paraquat] | 44 | 0.086 (0–0.63) mM | 0.50 (0–1.3) mM | 0.044 (0–0.21) mM | 1700 | 860 | 50 | 0.00014 (0.00012–0.00016) mM | 0.000090 (0.000080–0.000010) mM | 0.000098 (0.000060–0.000013) mM | 0.16 | 0.12 | 0.11 | 1.7 | >620 | – |
| O=C(O)CNCP(=O)(O)O [Glyphosate] | 160 | 0.22 (0.13–0.31) mM | 0.15 NA mM | 0.21 NA mM | 250 | 1000 | 360 | 0.054 (0–0.30) mM | 0.034 (0.022–0.046) mM | 0.053 (0.036–0.071) mM | 94 | 57 | 60 | −4.6 | 1.05 (≈ 6.21 mM) | – |
| Cl[C@H]1[C@H](Cl)[C@@H](Cl)[C@@H](Cl)[C@H](Cl)[C@H]1Cl [Lindane] | 22 | 0.048 (0–0.21) mM | 0.020 (0–0.051) mM | 0.055 (0–0.45) mM | 540 | 140 | 38 | 0.0039 (0.0016–0.0061) mM | 0.0048 (0.0036–0.0060) mM | 0.0040 (0.0021–0.0059) mM | 6.1 | 7.3 | 11 | 3.8 | 0.002 (≈ 0.00688 mM) | Chlorophyll Content EC10 (Lemna minor; 168 hour (7 day), 95% confidence interval in brackets, listed as lindane): 0.0039 mM |
| CNC(=O)O/N=C/C(C)(C)SC [Aldicarb] | 4.6 | 0.22 (0–0.62) mM | 0.27 (0–1.6) mM | 0.47 (0.29–0.65) mM | 250 | 9600 | 650 | 0.096 (0.017–0.17) mM | 0.40 (0.28–0.52) mM | 1.0 (0–3.9) mM | 110 | 1260 | 11000 | 1.1 | – | – |
